The record followed here is patent publication EP0105658A1, “Beta-lactam compounds” (BEECHAM GROUP PLC, priority 1982, dated 1984).

SMILES strings stand for the structures. ≈ marks a conversion by molar mass, not a printed value. Where two headings read alike, the source gives them in different places. A value given as a limit tells only on which side of the number the result lay.

Broadly, the MIC is the smallest concentration in the dilution series that meets the test's criterion for growth inhibition.

One data set relates to E. coli JT39. Description: MIC against E. coli JT39. The format is cell-based. Set-up: unit not given here.
The nature of data set [1]: Stability in kidney preparations (human). Format: in vitro ADME.
Data set [2] can be described thus: Stability in kidney preparations (pig). The format is in vitro ADME. The note with it: 100 mg/ml solubilised in 5% Triton X-100, * racemic compounds: figures based on stability of bio-active enantiomer.
The next data set concerns Pseudomonas aeruginosa A. Description: MIC, antibacterial activity (microtitre using nutrient broth). The format is cell-based. The note with it: for MIC: Pseudomonas aeruginosa.
In another data set the test system is S typhimurium CT10. Described as above. Format: cell-based. The following applies: * racemic, not corrected for presence of inactive enantiomer.
The next data set has as its system R + E coli. Described as above. Format: cell-based. The following applies: * racemic, not corrected for presence of inactive enantiomer.
The next data set deals with S aureus Russell. The data set is described as above. The following applies: * racemic, not corrected for presence of inactive enantiomer. Format: cell-based.
The mark [3] stands for this setting: 15% solubilised in 5% Triton X-100, 60 minutes, * racemic compounds: figures based on stability of bio-active enantiomer.
[4] abbreviates: Microtitre using Nutrient broth, * racemic, not corrected for presence of inactive enantiomer, read-out: MIC P aeruginosa A.

For `C[C@H](O)[C@@H]1C(=O)N2C(C(=O)O)=C(S/C=C\CN)C[C@H]12` [Example 1], in the data set on E. coli JT39, the “MIC against E. coli JT39” value was found to be 0.4. Also, in data set [1] (setting [3]), the “% left after 60 minutes Human Kidney Sonicate” value is 40%. For the same molecule, the “% left after 60 minutes Pig Kidney Acetone Powder” value in data set [2] came out at 39%. For the same molecule, the MIC in the data set on Pseudomonas aeruginosa A (read-out: MIC against Pseudomonas aeruginosa A) came to 6.2 µg/mL (≈ 21.8 µM).

For the molecule `C[C@@H](O)[C@H]1C(=O)N2C(C(=O)O)=C(S/C=C\CN)C[C@H]12` [Example 2, (5R,6S)-3-[(Z)-3-aminoprop-1-enylthio]-6-[(R)-1-hydroxyethyl]-7-oxo-1-azabicy,clo[3.2.0]hept-2-ene-2-carboxylic acid], in the data set on S typhimurium CT10, the “MIC S typhimurium CT10” value is 0.6 µg/mL. Moreover, in the data set with R + E coli, the “MIC R + E coli” value was 0.3 µg/mL. Also, in the data set with S aureus Russell, the “MIC S aureus Russell” value was found to be 0.08 µg/mL. In addition, the “MIC P aeruginosa A” value in the data set with Pseudomonas aeruginosa A (Microtitre using Nutrient broth, * racemic, not corrected for presence of inactive enantiomer) is 25 µg/mL.

`C[C@@H](O)[C@H]1C(=O)N2C(C(=O)O)=C(S/C=C/CN)C[C@H]12` [Example 12, (5R, 6S)-3-[(E)-3-aminoprop-1-enylthio]-6-[(R)-1-hydroxyethyl]-7-oxo-1-azabicyclo[3.2.0]hept-2-ene-2-carboxylic acid]: the results for the MIC with S typhimurium CT10, with S aureus Russell and with Pseudomonas aeruginosa A (setting [4]) were 0.2 µg/mL, less than 0.1 µg/mL and 12.5 µg/mL, respectively. Besides, the “% left after 60 minutes Human Kidney Sonicate” value in data set [1] (human, 60 min) came to 5%.

On to `C/C(=C/CN)SC1=C(C(=O)O)N2C(=O)[C@H]([C@@H](C)O)[C@H]2C1` [Example 10, (5R,6S)-3-[(Z)-3-amino-1-methylprop-1-enylthio]-6-[(R)-1-hydroxyethyl]-7-oxo-1-azabicyclo[3.2.0]hept-2-ene-2-carboxylic acid], for which the results for the MIC in the data set with S typhimurium CT10, in the data set with S aureus Russell and in the data set on Pseudomonas aeruginosa A (setting [4]) were 0.2 µg/mL, 0.1 µg/mL and 25 µg/mL, respectively. Also, in data set [1] (human, 60 min), the “% left after 60 minutes Human Kidney Sonicate” value came out at 56%.

For the molecule `C[C@H](O)[C@@H]1C(=O)N2C(C(=O)O)=C(S/C=C/CN)C[C@H]12` [Example 11, (5R,6R)-3-[(E)-3-aminoprop-1-enylthio]-6-[(S)-1-hydroxyethyl]-7-oxo-1-azabicyelo[3.2.0]hept-2-ene-2-carboxylic acid], the MIC in the data set with S typhimurium CT10 is 0.4 µg/mL; with R + E coli, less than 0.1 µg/mL; in the data set on S aureus Russell it was less than 0.1 µg/mL; in the data set with Pseudomonas aeruginosa A (setting [4]), 12.5 µg/mL. Besides, in data set [1] (setting [3]), the “% left after 60 minutes Human Kidney Sonicate” value is on record as 7%. Moreover, the “% left after 60 minutes Pig Kidney Acetone Powder” value in data set [2] was 6%.

Turning to `C/C(=C\CN)SC1=C(C(=O)O)N2C(=O)[C@@H]([C@H](C)O)[C@H]2C1` [Example 16, (5R, 6R)-3-[(E)-3-amino-1-methylprop-1-enylthio]-6-[(S)-1-hydroxyethyl]-7-oxo-1-azabicyclo[3.2.0]hept-2-ene-2-carboxylate], the MIC in the data set on S typhimurium CT10 is 0.2 µg/mL; in the data set on R + E coli, 1.6 µg/mL; in the data set with S aureus Russell it was less than 0.1 µg/mL; with Pseudomonas aeruginosa A (setting [4]) it was 25 µg/mL. Besides, the “% left after 60 minutes Human Kidney Sonicate” value in data set [1] (setting [3]) came to 13%. For the same molecule, in data set [2], the “% left after 60 minutes Pig Kidney Acetone Powder” value was 38%.

`C/C(=C/CN)SC1=C(C(=O)O)N2C(=O)[C@@H]([C@H](C)O)[C@H]2C1` [Example 8]: the MIC with S typhimurium CT10 is less than 0.1 µg/mL; with R + E coli it was 1.6 µg/mL; in the data set with S aureus Russell, less than 0.1 µg/mL; in the data set on Pseudomonas aeruginosa A (setting [4]), 25 µg/mL. Also, the “% left after 60 minutes Human Kidney Sonicate” value in data set [1] (setting [3]) stood at 51%. The “% left after 60 minutes Pig Kidney Acetone Powder” value in data set [2] turned out to be 78%.

`C/C(=C\CN)SC1=C(C(=O)O)N2C(=O)[C@H]([C@@H](C)O)[C@H]2C1` (racemic) [Example 14, (5RS, 6SR)-3-[(E)-3-amino-1-methylprop-1-enylthio]-6-[(RS)-1-hydroxyethyl]-7-oxo=1-azabicyclo[3.2.0]hept-2-ene-2-carboxylic acid]: the MIC in the data set with S typhimurium CT10 was 0.4 µg/mL; in the data set with R + E coli, 0.4 µg/mL; in the data set on S aureus Russell it was less than 0.1 µg/mL; with Pseudomonas aeruginosa A (setting [4]) it was 25 µg/mL. Also, the “% left after 60 minutes Human Kidney Sonicate” value in data set [1] (setting [3]) is recorded as 23%. Also, the “% left after 60 minutes Pig Kidney Acetone Powder” value in data set [2] is 36%.

Consider `C[C@@H](O)[C@H]1C(=O)N2C(C(=O)O)=C(S/C=C\CN)C[C@H]12` (racemic) [Example 13, (5RS, 6SR)-3-[(Z)-3-Aminoprop-1-enylthio]-b-[(1RS)-1-hydroxyethyl]-7-oxo-1-azabicyclo[3.2.0]hept-2-ene-2-carboxylic acid], for which the MIC in the data set with S typhimurium CT10 came out at 0.6 µg/mL; with R + E coli, 0.4 µg/mL; in the data set on S aureus Russell, 0.08 µg/mL; in the data set with Pseudomonas aeruginosa A (setting [4]) it was 25 µg/mL. For the same molecule, in data set [1] (setting [3]), the “% left after 60 minutes Human Kidney Sonicate” value is reported as 39%. Besides, the “% left after 60 minutes Pig Kidney Acetone Powder” value in data set [2] worked out at 40%.
